The source of these data is patent US20200230074A1, “NICOTINE-CONTAINING TRANSPARENT TRANSDERMAL THERAPEUTIC SYSTEM” (LTS Lohmann Theraple-Systeme AG, priority 2017, published 2020).

Data set [1] is described as follows: Storage of nicotine Eudragit E 100 solutions with antioxidants, visual colour (Pantone Colour Code). It is filed as physicochemical. As to conditions: stored in the dark 4 weeks at 60° C. or 80° C. An excerpt:
Since polyisobutylenes contain terminal double bonds and therefore have to be stabilised by the antioxidant butyl hydroxytoluene, it was examined whether the avoidance of nicotine discolouration can be achieved by antioxidants. Pharmaceutically acceptable antioxidants were therefore added to nicotine in graded-concentrations in 2 test series to form solutions of Eudragit E 100 (cationic copolymer based on dimethylaminoethyl methacrylate, butyl methacrylate and methyl methacrylate in a ratio of 2:1:1). These solutions were stored in the dark for 4 weeks at 60° C. or 80° C.
Butyl hydroxytoluene (BHT), ascorbyl palmitate and tocopherol were tested as antioxidants.
The samples were examined visually after storage, and the relevant Pantone Colour Code for the colour of the sample was determined. The Pantone Colour Code is an internationally used colour system developed by the company Pantone LLC, USA. As a result it is possible to determine that the antioxidants were unable to suppress the discolouration of the nicotine.

Data set [2] is described as follows: Analysis of nicotine degradation products in stored samples. In kind it is physicochemical. Conditions: conclusion from degradation products. On the procedure: In order to check which decomposition products of nicotine cause the brown colour, sample Nic 0007 was analysed.

Turning to `CCCCCCCCCCCCCCCC(=O)OC[C@H](O)[C@H]1OC(=O)C(O)=C1O` [ascorbyl palmitate], the “suppression of the discolouration of nicotine” value in data set [1] is “does not prevent the brown colouration of nicotine”. The decomposition of nicotine entry in data set [2] was “does prevent its decomposition”.
